Source: patent US20190085207A1, “POLISHING COMPOSITION FOR OBJECT TO BE POLISHED HAVING METAL-CONTAINING LAYER” (FUJIMI INCORPORATED, priority 2016, published 2019)

Assay: Acid dissociation constant (pKa) of the acid
Text: In this specification, the acid dissociation constant (pKa) of the acid is an index of acidity, and a common logarithm is employed as a reciprocal of the dissociation constant (Ka) of acid. That is, the acid dissociation constant (pKa) of the acid is obtained by measuring the dissociation constant Ka=[H3O^+] [B^−]/[BH] under a dilute aqueous solution condition and using a formula: pKa=−log Ka Incidentally, in the above formula, BH represents an organic acid and B^− represents a conjugate base of an organic acid. The measurement method of pKa is as follows: a hydrogen ion concentration is measured using a pH meter and pKa can be calculated from the concentration of the substance and the hydrogen ion concentration. Incidentally, in the case of polybasic acid, the pKa is a value calculated for the first Ka (pKa1).

Compound	pKa (dilute aqueous solution)	pKa
CC(C)(O)C(=O)O [2-Hydroxyisobutyric acid]	4.37	–
O=C(O)C(O)CO (centres unmarked) [Glyceric acid]	3.4	–
CC(C)CC(O)C(=O)O (centres unmarked) [Leucine acid]	–	3.9
O=C(O)CC(O)C(=O)O (centres unmarked) [Malic acid]	–	3.4
CCCCC(=O)O [Valeric acid]	4.6	–
